Experimental findings from patent US20050191348A1 (priority 2004, published 2005) are described below.

One may read the IC50 as the point on the concentration scale where inhibition reaches its midpoint. Low values mean higher potency, high ones lower potency.

For assay [1], the system named is caspase-3. As to the kind of experiment: Caspase-3 cleavage in SH-SY5Y cells in serum free medium. The format is cell-based, human. The settings on record: 3 days serum free, then 48 h with 1, 10 μM. As for the experimental part:
FIGS. 3A-3D show the neuroprotective effects of propargylamine against serum deprivation. PC12 cells (3A) and SH-SY5Y neuroblastoma cells (3B) were incubated under serum deprivation and were untreated or treated with propargylamine (0.1, 1, 10 μM) for 24 hours. Cell death was detected by ELISA and the values are expressed as a percentage of the control. The results are the mean±SEM (n=3). *p<0.05 vs. control, untreated cells. (3C) Morphological characteristics visualized by phase-contrast microscope of PC12 cells maintained with full serum medium (a), or serum-free medium in the absence (b) or presence of propargylamine (1 μM) (c) or (10 μM) (d). The morphology was visualized by phase-contrast microscope. The results are representative photographic. Similar results were repeated 3 times. (3D) Effect of propargylamine on caspase-3 cleavage in SH-SY5Y neuroblastoma cells incubated 3 days in serum free medium, followed by 48 h incubation with or without propargylamine (1,10 μM).
(iv) Immunoblot Analyses. […] Protein content was determined using the Bradford method. […] Quantification of results was accomplished by measuring the optical density of the labeled bands from the autoradiograms by scanning laser densitometry using the computerized imaging program Bio-ID (Imager, Bio1D software; Vilber Lourmat, Marne La Vallee, France). […]

In assay [2] the target is T1, rat brain MAO-A (Rattus norvegicus, UniProt P21396).
T1 construct: from tissue; host or cells: rat brain homogenate
T1 sequence (P21396 1-526): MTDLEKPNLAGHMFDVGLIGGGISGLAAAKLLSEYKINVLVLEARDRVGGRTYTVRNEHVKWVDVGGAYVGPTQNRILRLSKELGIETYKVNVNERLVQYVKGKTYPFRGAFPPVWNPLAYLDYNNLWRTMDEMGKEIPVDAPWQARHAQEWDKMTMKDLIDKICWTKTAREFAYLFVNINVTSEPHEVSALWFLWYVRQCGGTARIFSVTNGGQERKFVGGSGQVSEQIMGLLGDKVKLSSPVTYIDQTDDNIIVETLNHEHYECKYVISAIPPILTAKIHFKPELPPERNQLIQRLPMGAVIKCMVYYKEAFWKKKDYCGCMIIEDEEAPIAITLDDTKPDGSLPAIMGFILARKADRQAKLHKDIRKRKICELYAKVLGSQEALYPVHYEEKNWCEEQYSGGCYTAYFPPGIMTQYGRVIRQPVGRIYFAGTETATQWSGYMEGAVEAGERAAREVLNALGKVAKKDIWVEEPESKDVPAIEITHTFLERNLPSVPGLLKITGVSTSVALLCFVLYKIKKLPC
As to the kind of experiment: In vitro inhibition of rat brain MAO-A. Type of assay: biochemical. To be noted: rat brain homogenate, 60 min preincubation at 37° C., 14C-5-hydroxytryptamine. As for the experimental part: To determine the activity of MAO-A and MAO-B, the test compound is added to a suitable dilution of the enzyme preparation from rat brain (70 μg protein for MAO-B and 150 μg MAO-A assay) in 0.05 M phosphate buffer (pH 7.4). Tthe mixture is incubated together with […], a specific inhibitor of MAO-B (for determination of MAO-A) or with […], a specific inhibitor of MAO-A (for determination of MAO-B). Incubation is carried for 1 h at 37° C. before addition of ^14C-5-hydroxytryptamine binoxalate ([…]), for determination of MAO-A, or ^14C-phenylethylamine ([…]), for determination of MAO-B, and incubation is continued for 30 min or 20 min, respectively. The reaction is stopped with 2 M ice-cold citric acid, and the metabolites are extracted and determined by liquid-scintillation counting in cpm units.
Thus, in one experiment, the in vitro inhibitory activity of 5-(4-propargylpiperazin-1-ylmethyl)-8-hydroxy-quinoline (HLA20) and the 8-hydroxyquinoline derivative designated M32 (both iron chelators disclosed in the International Application PCT/IL03/00932), and propargylamine (P) (0.1, 1, 10, 100 μM) were tested against rat brain MAO-A. The test compounds were added to buffer containing 0.05 μM deprenyl and were incubated with the tissue homogenate for 60 min at 37° C. before addition of ^14C-5-hydroxytryptamine. […]

Turning to `C#CCN` [propargylamine], the “activated caspase-3” value in assay [1] is “decreased activated caspase-3”. The compound also showed an IC50 in assay [2] of around 66 µM.
